From ChEMBL document CHEMBL4706559, “New indolylarylsulfone non-nucleoside reverse transcriptase inhibitors show low nanomolar inhibition of single and double HIV-1 mutant strains” (Eur J Med Chem, 2020)

Key:
[1] = system: Human immunodeficiency virus 1; assay: Binding affinity to free form of HIV-1 p66/p51 reverse transcriptase K103N/Y181C double mutant assessed as association constant using poly(rA)/oligo(dT) as templates in presence of [3H]dTTP
[2] = system: Human immunodeficiency virus 1; assay: Antiviral activity against HIV1 harboring RT K103N/Y181C double mutant infected in human MT4 cells assessed as protection against virus-induced cytopathic effect by MTT assay; format: functional, organism-based; conditions: Human immunodeficiency virus 1, MT4
[3] = Cytotoxicity against human MT-4 cells assessed as reduction in cell viability by MTT assay; format: cell-based, MT4
[4] = target: Human immunodeficiency virus type 1 reverse transcriptase (Human immunodeficiency virus 1) (UniProt Q72547); assay: Inhibition of wild type HIV1 p66/p51 reverse transcriptase assessed as apparent Vmax at 30 nM using fixed concentration of poly(rA)/oligo(dT) as templates in presence of 2 to 100 uM of [3H]dTTP by Michaelis-Menten analysis (reference value: 9.7 +/- 12%)
[5] = Binding affinity to free form of HIV-1 p66/p51 reverse transcriptase K103N/Y181C double mutant using poly(rA)/oligo(dT) as templates in presence of [3H]dTTP; design: species or system Human immunodeficiency virus 1
[6] = target: Human immunodeficiency virus type 1 reverse transcriptase (Human immunodeficiency virus 1) (UniProt Q72547); assay: Inhibition of wild type HIV1 p66/p51 reverse transcriptase assessed as apparent Vmax at 225 nM using fixed concentration of poly(rA)/oligo(dT) as templates in presence of 2 to 100 uM of [3H]dTTP by Michaelis-Menten analysis (reference value: 9.7 +/- 12%)
[7] = system: Human immunodeficiency virus 1; assay: Binding affinity to HIV-1 p66/p51 reverse transcriptase K103N/Y181C double mutant/nucleic acid/dTTP ternary complex assessed as dissociation constant using poly(rA)/oligo(dT) as templates in presence of [3H]dTTP
[8] = system: Human immunodeficiency virus 1; assay: Antiviral activity against wild type HIV-1 P1 infected in human C8166 cells assessed as reduction in viral RNA production at 25 nM; format: functional; conditions: Human immunodeficiency virus 1, P1, C8166
[9] = system: Human immunodeficiency virus 1; assay: Synergistic inhibition of HIV-1 p66/p51 reverse transcriptase K103N/Y181C double mutant assessed as combination index using poly(rA)/oligo(dT) as templates in presence of [3H]dTTP preincubated enzyme with nucleic acid followed by addition of AZTTP and subsequent incubation with compound and dTTP
[10] = target: Human immunodeficiency virus type 1 reverse transcriptase (Human immunodeficiency virus 1) (UniProt Q72547); assay: Ratio of Koff of wild type HIV-1 p66/p51 reverse transcriptase/nucleic acid binary complex to Koff of free form of wild type HIV-1 p66/p51 reverse transcriptase using poly(rA)/oligo(dT) as templates in presence of [3H]dTTP
[11] = target: Human immunodeficiency virus type 1 reverse transcriptase (Human immunodeficiency virus 1, UniProt Q72547, K103N); assay: Inhibition of RNA-dependent DNA polymerase activity of recombinant HIV-1 p66/p51 reverse transcriptase K103N mutant assessed as inhibition of [3H]dTTP incorporation using poly(rA)/oligo(dT) as templates incubated for 15 mins by MicroBeta scintillation counting method
[12] = target: Human immunodeficiency virus type 1 reverse transcriptase (Human immunodeficiency virus 1) (UniProt Q72547); assay: Ratio of Kon of wild type HIV-1 p66/p51 reverse transcriptase/nucleic acid binary complex to Kon of wild type HIV-1 p66/p51 reverse transcriptase/nucleic acid/dTTP ternary complex using poly(rA)/oligo(dT) as templates in presence of [3H]dTTP
[13] = target: Human immunodeficiency virus type 1 reverse transcriptase (Human immunodeficiency virus 1) (UniProt Q72547); assay: Inhibition of wild type HIV1 p66/p51 reverse transcriptase assessed as apparent Vmax at 75 nM using 10 to 500 uM poly(rA)/oligo(dT) as templates in presence of fixed concentration of [3H]dTTP by Michaelis-Menten analysis (reference value: 10 +/- 0.5%)
[14] = system: Human immunodeficiency virus 1; assay: Ratio of Koff of HIV-1 p66/p51 reverse transcriptase K103N/Y181C double mutant/nucleic acid/dTTP ternary complex to Koff of HIV-1 p66/p51 reverse transcriptase/nucleic acid binary complex using poly(rA)/oligo(dT) as templates in presence of [3H]dTTP
[15] = target: T1, Human immunodeficiency virus type 1 reverse transcriptase (Human immunodeficiency virus 1, UniProt Q72547); assay: Inhibition of RNA-dependent DNA polymerase activity of wild type recombinant HIV-1 His-tagged p66/p51 reverse transcriptase assessed as inhibition of [3H]dTTP incorporation using poly(rA)/oligo(dT) as templates incubated for 15 mins by MicroBeta scintillation counting method
[16] = system: Human immunodeficiency virus 1; assay: Resistance index, ratio of EC50 for antiviral activity against HIV1 harboring RT K103N/Y181C double mutant infected in human MT4 cells to EC50 for antiviral activity against HIV1 NL4-3 infected in human MT4 cells; format: functional
[17] = target: T1, Human immunodeficiency virus type 1 reverse transcriptase; assay: Binding affinity to wild type HIV-1 p66/p51 reverse transcriptase/nucleic acid binary complex using poly(rA)/oligo(dT) as templates in presence of [3H]dTTP
[18] = system: Human immunodeficiency virus 1; assay: Antiviral activity against HIV1 harboring RT Y181C mutant infected in human MT4 cells assessed as protection against virus-induced cytopathic effect by MTT assay; format: functional, organism-based; conditions: Human immunodeficiency virus 1, MT4
[19] = system: Human immunodeficiency virus 1; assay: Inhibition of HIV1 p66/p51 reverse transcriptase K103N/Y181C double mutant assessed as apparent Km of substrate at 150 nM using fixed concentration of poly(rA)/oligo(dT) as templates in presence of 2 to 100 uM of [3H]dTTP by Michaelis-Menten analysis (reference value: 9.2 +/- 1.4 uM)
[20] = system: Human immunodeficiency virus 1; assay: Inhibition of HIV1 p66/p51 reverse transcriptase K103N/Y181C double mutant assessed as apparent Km of substrate at 300 nM using […] as templates in presence of fixed concentration of [3H]dTTP by Michaelis-Menten analysis (reference value: 106+/- 16 nM)
[21] = system: Human immunodeficiency virus 1; assay: Antiviral activity against wild type HIV-1 P1 infected in human C8166 cells assessed as reduction in viral p24 antigen production at 25 nM; format: functional; conditions: Human immunodeficiency virus 1, P1, C8166
[22] = Binding affinity to HIV-1 p66/p51 reverse transcriptase K103N/Y181C double mutant/nucleic acid/dTTP ternary complex using poly(rA)/oligo(dT) as templates in presence of [3H]dTTP; design: species or system Human immunodeficiency virus 1
[23] = Binding affinity to HIV-1 p66/p51 reverse transcriptase K103N/Y181C double mutant/nucleic acid binary complex using poly(rA)/oligo(dT) as templates in presence of [3H]dTTP; design: species or system Human immunodeficiency virus 1
[24] = system: Human immunodeficiency virus 1; assay: Binding affinity to HIV-1 p66/p51 reverse transcriptase K103N/Y181C double mutant/nucleic acid binary complex assessed as association constant using poly(rA)/oligo(dT) as templates in presence of [3H]dTTP
[25] = target: Human immunodeficiency virus type 1 reverse transcriptase (Human immunodeficiency virus 1) (UniProt Q72547); assay: Inhibition of wild type HIV1 p66/p51 reverse transcriptase assessed as apparent Vmax at 150 nM using 10 to 500 uM poly(rA)/oligo(dT) as templates in presence of fixed concentration of [3H]dTTP by Michaelis-Menten analysis (reference value: 10 +/- 0.5%)
[26] = system: Human immunodeficiency virus 1; assay: Synergistic inhibition of wild type HIV-1 p66/p51 reverse transcriptase assessed as combination index using poly(rA)/oligo(dT) as templates in presence of [3H]dTTP preincubated enzyme with nucleic acid followed by addition of AZTTP and subsequent incubation with compound and dTTP

Compound: Cc1cc(C)cc(S(=O)(=O)c2c(C(=O)NCc3ccccc3O)[nH]c3ccc(Cl)cc23)c1
- K [1]: 10 10^-5/nM/s
- EC50 [2]: 6.2 nM
- CC50 [3]: 23.8 µM
- Vmax(app) [4]: 5.6%
- Ki [5]: 137 nM
- Vmax(app) [6]: 0.9%
- K [7]: 33 10^-3/s
- inhibition at 0.025 µM [8]: 100%
- CI [9]: 0.6
- Ratio [10]: 8
- IC50 [11]: 73 nM
- Ratio [12]: 7
- Vmax(app) [13]: 3.3%
- Ratio [14]: 4
- IC50 [15]: 83 nM
- Ratio EC50 [16]: >8.8
- Ki [17]: 36 nM
- EC50 [18]: < 0.7 nM
- Km [19]: 2.2 µM
- Km [20]: 0.104 µM
- inhibition at 0.025 µM [21]: 100%
- Ki [22]: 78 nM
- Ki [23]: 86 nM
- K [24]: 10 10^-5/nM/s
- Vmax(app) [25]: 1.2%
- CI [26]: 0.75
